Measured values as given in ChEMBL document CHEMBL4507305, “Data for DCP probe TP-024” (2021).

Columns and labels:
[1] = test system: Leucine-rich repeat serine/threonine-protein kinase 2 (Homo sapiens), Q5S007 [G2019S]; settings: Compound concentration 1000.0 nM
[2] = target: Serine/threonine-protein kinase Nek7 (Homo sapiens) (UniProt Q8TDX7); settings: Compound concentration 1000.0 nM
[3] = target: LIM domain kinase 2 (Homo sapiens) (UniProt P53671); settings: Compound concentration 1000.0 nM
[4] = target: Serine/threonine-protein kinase 33 (Homo sapiens) (UniProt Q9BYT3); settings: Compound concentration 1000.0 nM
[5] = target: Calcium/calmodulin-dependent protein kinase type 1 (Homo sapiens) (UniProt Q14012); settings: Compound concentration 1000.0 nM
[6] = target: Serine/threonine-protein kinase 32B (Homo sapiens) (UniProt Q9NY57); settings: Compound concentration 1000.0 nM
[7] = target: Ribosomal protein S6 kinase alpha-5 (Homo sapiens) (UniProt O75582); settings: Compound concentration 1000.0 nM
[8] = target: Ephrin type-A receptor 1 (Homo sapiens) (UniProt P21709); settings: Compound concentration 1000.0 nM
[9] = test system: Fibroblast growth factor receptor 3 (Homo sapiens), P22607 [G697C]; settings: Compound concentration 1000.0 nM
Chain of Fibroblast growth factor receptor 3 (Homo sapiens), P22607 [G697C] (P22607 whole entry G697C): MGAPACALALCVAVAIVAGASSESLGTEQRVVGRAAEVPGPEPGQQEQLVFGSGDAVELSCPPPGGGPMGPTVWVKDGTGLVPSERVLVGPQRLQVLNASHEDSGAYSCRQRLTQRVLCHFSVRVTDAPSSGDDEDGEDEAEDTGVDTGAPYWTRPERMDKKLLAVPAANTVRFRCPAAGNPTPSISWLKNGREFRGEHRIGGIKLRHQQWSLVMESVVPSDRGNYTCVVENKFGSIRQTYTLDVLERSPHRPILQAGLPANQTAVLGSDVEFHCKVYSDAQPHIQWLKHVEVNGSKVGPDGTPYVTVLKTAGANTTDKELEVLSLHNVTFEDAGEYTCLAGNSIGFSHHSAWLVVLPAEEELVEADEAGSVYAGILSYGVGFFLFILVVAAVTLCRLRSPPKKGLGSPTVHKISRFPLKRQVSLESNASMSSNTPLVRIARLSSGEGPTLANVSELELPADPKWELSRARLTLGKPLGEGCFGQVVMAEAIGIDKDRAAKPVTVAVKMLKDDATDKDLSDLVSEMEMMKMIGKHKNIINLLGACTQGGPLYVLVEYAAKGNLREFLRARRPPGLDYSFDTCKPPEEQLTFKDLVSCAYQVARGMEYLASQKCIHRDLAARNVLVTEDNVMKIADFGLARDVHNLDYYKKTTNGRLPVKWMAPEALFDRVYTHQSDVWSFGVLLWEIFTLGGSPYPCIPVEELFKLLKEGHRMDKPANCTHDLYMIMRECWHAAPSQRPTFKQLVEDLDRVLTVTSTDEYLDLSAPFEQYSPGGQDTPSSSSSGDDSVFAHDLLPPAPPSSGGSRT

[10] = target: Mast/stem cell growth factor receptor Kit (Homo sapiens) (UniProt P10721); settings: Compound concentration 1000.0 nM
[11] = target: Serine/threonine-protein kinase NLK (Homo sapiens) (UniProt Q9UBE8); settings: Compound concentration 1000.0 nM
[12] = target: Ribosomal protein S6 kinase alpha-2 (Homo sapiens) (UniProt Q15349); settings: Compound concentration 1000.0 nM
[13] = target: Casein kinase I isoform delta (Homo sapiens) (UniProt P48730); settings: Compound concentration 1000.0 nM
[14] = target: Mitogen-activated protein kinase kinase kinase kinase 4 (Homo sapiens) (UniProt O95819); settings: Compound concentration 1000.0 nM
Chain of Mitogen-activated protein kinase kinase kinase kinase 4 (Homo sapiens) (O95819 2-1239 limits assumed): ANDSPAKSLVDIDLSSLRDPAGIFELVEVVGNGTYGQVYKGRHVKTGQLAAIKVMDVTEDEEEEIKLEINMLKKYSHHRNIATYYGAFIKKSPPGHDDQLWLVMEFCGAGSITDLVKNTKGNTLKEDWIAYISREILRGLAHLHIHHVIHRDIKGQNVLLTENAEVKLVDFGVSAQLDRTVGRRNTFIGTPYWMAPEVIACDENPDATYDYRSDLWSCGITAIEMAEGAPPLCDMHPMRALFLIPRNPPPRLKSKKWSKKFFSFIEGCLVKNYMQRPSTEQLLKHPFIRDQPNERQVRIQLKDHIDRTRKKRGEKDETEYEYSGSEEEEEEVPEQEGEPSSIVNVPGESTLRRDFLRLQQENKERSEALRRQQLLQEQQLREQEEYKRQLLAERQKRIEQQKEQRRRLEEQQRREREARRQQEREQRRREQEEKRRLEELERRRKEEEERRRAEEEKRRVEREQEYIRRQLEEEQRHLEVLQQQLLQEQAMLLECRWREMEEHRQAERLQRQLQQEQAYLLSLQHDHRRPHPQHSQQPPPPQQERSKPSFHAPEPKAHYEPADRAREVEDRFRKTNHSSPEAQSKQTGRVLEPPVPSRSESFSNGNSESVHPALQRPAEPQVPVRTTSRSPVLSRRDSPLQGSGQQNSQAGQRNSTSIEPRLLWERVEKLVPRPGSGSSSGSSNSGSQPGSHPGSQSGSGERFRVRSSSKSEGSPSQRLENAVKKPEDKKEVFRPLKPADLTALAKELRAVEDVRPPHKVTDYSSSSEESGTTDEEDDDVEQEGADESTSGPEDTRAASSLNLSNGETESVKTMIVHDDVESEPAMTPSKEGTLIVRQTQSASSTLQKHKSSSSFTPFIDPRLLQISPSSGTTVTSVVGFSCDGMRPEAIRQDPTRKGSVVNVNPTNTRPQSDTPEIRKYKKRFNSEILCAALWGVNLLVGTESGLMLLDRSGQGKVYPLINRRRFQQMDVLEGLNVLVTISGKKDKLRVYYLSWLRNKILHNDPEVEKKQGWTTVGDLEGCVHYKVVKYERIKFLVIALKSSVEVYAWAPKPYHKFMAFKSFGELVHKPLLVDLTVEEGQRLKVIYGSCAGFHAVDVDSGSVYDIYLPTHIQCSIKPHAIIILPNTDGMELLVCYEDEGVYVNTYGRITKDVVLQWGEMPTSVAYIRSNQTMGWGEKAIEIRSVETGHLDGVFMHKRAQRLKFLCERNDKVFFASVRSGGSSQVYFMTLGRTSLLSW

[15] = test system: ALK tyrosine kinase receptor (Homo sapiens), Q9UM73 [L1196M]; settings: Compound concentration 1000.0 nM
[16] = test system: Tyrosine-protein kinase ABL1 (Homo sapiens), P00519 [F317L]; settings: Compound concentration 1000.0 nM
[17] = target: Hormonally up-regulated neu tumor-associated kinase (Homo sapiens) (UniProt P57058); settings: Compound concentration 1000.0 nM
[18] = target: Serine/threonine-protein kinase Chk1 (Homo sapiens) (UniProt O14757); settings: Compound concentration 1000.0 nM
[19] = target: TGF-beta receptor type-2 (Homo sapiens) (UniProt P37173); settings: Compound concentration 1000.0 nM
[20] = test system: Receptor-type tyrosine-protein kinase FLT3 (Homo sapiens), P36888 [D835V]; settings: Compound concentration 1000.0 nM
[21] = target: Glycogen synthase kinase-3 beta (Homo sapiens) (UniProt P49841); settings: Compound concentration 1000.0 nM
[22] = target: Atypical kinase COQ8A, mitochondrial (Homo sapiens) (UniProt Q8NI60); settings: Compound concentration 1000.0 nM
[23] = target: Tyrosine-protein kinase ABL1 (Homo sapiens) (UniProt P00519); settings: Compound concentration 1000.0 nM
[24] = test system: Receptor-type tyrosine-protein kinase FLT3 (Homo sapiens), P36888 [UNDEFINED MUTATION]; settings: Compound concentration 1000.0 nM
[25] = test system: Phosphatidylinositol 4,5-bisphosphate 3-kinase catalytic subunit alpha isoform (Homo sapiens), P42336 [C420R]; settings: Compound concentration 1000.0 nM
[26] = target: Eukaryotic translation initiation factor 2-alpha kinase 1 (Homo sapiens) (UniProt Q9BQI3); settings: Compound concentration 1000.0 nM
[27] = target: Serine/threonine-protein kinase TAO1 (Homo sapiens) (UniProt Q7L7X3); settings: Compound concentration 1000.0 nM
[28] = target: Death-associated protein kinase 1 (Homo sapiens) (UniProt P53355); settings: Compound concentration 1000.0 nM
Chain of Death-associated protein kinase 1 (Homo sapiens) (P53355 whole entry, looked up): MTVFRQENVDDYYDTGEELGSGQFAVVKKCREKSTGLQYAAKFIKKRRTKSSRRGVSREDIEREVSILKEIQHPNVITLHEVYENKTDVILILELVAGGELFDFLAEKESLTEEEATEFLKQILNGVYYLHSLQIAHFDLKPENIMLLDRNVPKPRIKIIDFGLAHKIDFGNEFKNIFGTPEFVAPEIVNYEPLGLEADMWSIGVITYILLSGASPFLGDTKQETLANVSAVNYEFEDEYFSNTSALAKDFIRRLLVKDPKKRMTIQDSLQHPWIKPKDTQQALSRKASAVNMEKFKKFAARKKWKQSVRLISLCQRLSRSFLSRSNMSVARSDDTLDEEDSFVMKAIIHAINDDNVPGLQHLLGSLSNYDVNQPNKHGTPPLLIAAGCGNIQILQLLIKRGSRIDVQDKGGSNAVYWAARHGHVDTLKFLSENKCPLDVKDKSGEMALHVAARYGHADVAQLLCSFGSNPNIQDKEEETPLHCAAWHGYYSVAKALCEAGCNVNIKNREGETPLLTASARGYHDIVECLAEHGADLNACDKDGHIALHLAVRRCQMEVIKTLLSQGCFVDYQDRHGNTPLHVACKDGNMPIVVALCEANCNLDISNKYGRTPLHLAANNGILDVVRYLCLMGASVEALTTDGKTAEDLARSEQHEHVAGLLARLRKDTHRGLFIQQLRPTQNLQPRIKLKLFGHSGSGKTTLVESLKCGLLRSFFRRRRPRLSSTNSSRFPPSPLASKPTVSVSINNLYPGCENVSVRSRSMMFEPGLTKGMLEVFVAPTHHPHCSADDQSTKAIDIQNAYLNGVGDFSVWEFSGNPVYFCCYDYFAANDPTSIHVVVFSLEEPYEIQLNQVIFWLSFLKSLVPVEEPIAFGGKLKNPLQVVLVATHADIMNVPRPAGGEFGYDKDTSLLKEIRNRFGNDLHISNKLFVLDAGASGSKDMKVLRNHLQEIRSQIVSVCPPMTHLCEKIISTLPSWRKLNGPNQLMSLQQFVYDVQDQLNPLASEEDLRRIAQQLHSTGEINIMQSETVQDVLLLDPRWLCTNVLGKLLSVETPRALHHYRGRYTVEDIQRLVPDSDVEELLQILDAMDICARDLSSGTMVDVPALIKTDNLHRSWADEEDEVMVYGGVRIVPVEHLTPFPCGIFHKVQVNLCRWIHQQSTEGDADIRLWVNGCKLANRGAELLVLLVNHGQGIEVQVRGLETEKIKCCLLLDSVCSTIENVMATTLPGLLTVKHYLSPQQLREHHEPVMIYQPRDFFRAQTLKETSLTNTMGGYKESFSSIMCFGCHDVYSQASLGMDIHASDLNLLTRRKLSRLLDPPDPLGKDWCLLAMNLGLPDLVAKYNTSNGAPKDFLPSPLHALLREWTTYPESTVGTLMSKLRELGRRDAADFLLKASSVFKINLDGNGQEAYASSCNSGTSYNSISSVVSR

[29] = target: Homeodomain-interacting protein kinase 2 (Homo sapiens) (UniProt Q9H2X6); settings: Compound concentration 1000.0 nM
[30] = target: Alpha-2B adrenergic receptor (Homo sapiens) (UniProt P18089); settings: Compound concentration 10.0 uM
Chain of Alpha-2B adrenergic receptor (Homo sapiens) (P18089 whole entry): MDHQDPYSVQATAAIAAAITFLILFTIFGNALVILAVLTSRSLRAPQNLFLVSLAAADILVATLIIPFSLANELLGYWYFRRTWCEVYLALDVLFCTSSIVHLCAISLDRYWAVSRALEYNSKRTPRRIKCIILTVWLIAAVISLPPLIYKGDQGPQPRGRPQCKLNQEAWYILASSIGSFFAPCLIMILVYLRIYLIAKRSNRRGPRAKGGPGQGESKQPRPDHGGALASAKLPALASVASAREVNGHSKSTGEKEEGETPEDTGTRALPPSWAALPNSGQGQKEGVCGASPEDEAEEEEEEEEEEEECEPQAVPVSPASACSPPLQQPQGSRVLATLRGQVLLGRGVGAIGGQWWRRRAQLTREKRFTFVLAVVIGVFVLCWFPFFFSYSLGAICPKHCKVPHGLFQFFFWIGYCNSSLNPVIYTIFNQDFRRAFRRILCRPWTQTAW

[31] = target: Serine/threonine-protein kinase RIO1 (Homo sapiens) (UniProt Q9BRS2); settings: Compound concentration 1000.0 nM
[32] = target: Tyrosine-protein kinase FRK (Homo sapiens) (UniProt P42685); settings: Compound concentration 1000.0 nM
Chain of Tyrosine-protein kinase FRK (Homo sapiens) (P42685 whole entry): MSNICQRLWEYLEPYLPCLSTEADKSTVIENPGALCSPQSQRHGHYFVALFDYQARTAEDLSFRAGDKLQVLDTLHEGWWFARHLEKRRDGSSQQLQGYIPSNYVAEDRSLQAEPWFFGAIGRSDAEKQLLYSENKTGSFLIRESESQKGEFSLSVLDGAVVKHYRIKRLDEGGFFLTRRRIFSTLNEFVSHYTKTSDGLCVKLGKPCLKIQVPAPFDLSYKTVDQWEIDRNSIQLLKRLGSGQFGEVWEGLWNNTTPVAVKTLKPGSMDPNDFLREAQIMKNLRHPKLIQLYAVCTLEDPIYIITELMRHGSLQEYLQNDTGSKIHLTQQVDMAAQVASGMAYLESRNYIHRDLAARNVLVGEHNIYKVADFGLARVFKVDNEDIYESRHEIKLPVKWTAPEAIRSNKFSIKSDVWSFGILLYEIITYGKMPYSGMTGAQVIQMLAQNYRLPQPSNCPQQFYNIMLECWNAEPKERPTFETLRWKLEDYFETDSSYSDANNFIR

[33] = target: Mitogen-activated protein kinase kinase kinase kinase 5 (Homo sapiens) (UniProt Q9Y4K4); settings: Compound concentration 1000.0 nM
[34] = target: Bone morphogenetic protein receptor type-1B (Homo sapiens) (UniProt O00238); settings: Compound concentration 1000.0 nM
[35] = target: Casein kinase II subunit alpha (Homo sapiens) (UniProt P68400); settings: Compound concentration 1000.0 nM
[36] = target: Dual specificity protein kinase CLK2 (Homo sapiens) (UniProt P49760); settings: Compound concentration 1000.0 nM
[37] = target: Tyrosine-protein kinase Fes/Fps (Homo sapiens) (UniProt P07332); settings: Compound concentration 1000.0 nM
[38] = target: Serine/threonine-protein kinase RIO2 (Homo sapiens) (UniProt Q9BVS4); settings: Compound concentration 1000.0 nM
Chain of Serine/threonine-protein kinase RIO2 (Homo sapiens) (Q9BVS4 whole entry, looked up): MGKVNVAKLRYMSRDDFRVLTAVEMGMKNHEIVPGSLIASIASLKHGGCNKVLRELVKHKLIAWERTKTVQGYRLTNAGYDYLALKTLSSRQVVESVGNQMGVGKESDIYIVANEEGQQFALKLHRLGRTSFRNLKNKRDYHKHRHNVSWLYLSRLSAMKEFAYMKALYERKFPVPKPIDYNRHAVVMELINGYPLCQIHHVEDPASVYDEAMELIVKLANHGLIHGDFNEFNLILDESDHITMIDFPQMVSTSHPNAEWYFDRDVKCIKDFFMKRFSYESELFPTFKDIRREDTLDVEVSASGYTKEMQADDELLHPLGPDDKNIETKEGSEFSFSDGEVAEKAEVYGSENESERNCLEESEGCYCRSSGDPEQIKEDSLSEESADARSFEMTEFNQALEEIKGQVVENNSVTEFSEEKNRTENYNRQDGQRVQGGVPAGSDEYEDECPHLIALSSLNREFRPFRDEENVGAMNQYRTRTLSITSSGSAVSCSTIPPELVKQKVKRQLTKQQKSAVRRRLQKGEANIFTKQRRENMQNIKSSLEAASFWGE

[39] = target: Dual specificity protein kinase CLK1 (Homo sapiens) (UniProt P49759); settings: Compound concentration 1000.0 nM
[40] = test system: Tyrosine-protein kinase ABL1 (Homo sapiens), P00519 [Y253F]; settings: Compound concentration 1000.0 nM
[41] = target: Death-associated protein kinase 3 (Homo sapiens) (UniProt O43293); settings: Compound concentration 1000.0 nM
[42] = target: Tyrosine-protein kinase HCK (Homo sapiens) (UniProt P08631); settings: Compound concentration 1000.0 nM
[43] = target: Cyclin-dependent kinase 7 (Homo sapiens) (UniProt P50613); settings: Compound concentration 1000.0 nM
[44] = target: Dual specificity protein kinase CLK3 (Homo sapiens) (UniProt P49761); settings: Compound concentration 1000.0 nM
[45] = target: Mu-type opioid receptor (Homo sapiens) (UniProt P35372); settings: Compound concentration 10.0 uM

Cc1cc(-n2nc(Cc3cc(F)cc(C(F)(F)F)c3)nc2C)ccc1C(N)=O [TP-024]
inactive: residual activity [1] 100% | residual activity [2] 97% | residual activity [3] 95% | residual activity [4] 100% | residual activity [5] 90% | residual activity [6] 100% | residual activity [7] 97% | residual activity [8] 100% | residual activity [9] 100% | residual activity [10] 95% | residual activity [11] 100% | residual activity [12] 100% | residual activity [13] 100% | residual activity [14] 100% | residual activity [15] 100% | residual activity [16] 100% | residual activity [17] 89% | residual activity [18] 100% | residual activity [19] 100% | residual activity [20] 100% | residual activity [21] 98% | residual activity [22] 100% | residual activity [23] 100% | residual activity [24] 100% | residual activity [25] 93% | residual activity [26] 100% | residual activity [27] 91% | residual activity [28] 99% | residual activity [29] 100% | inhibition [30] 10.1% | residual activity [31] 85% | residual activity [32] 100% | residual activity [33] 100% | residual activity [34] 100% | residual activity [35] 100% | residual activity [36] 94% | residual activity [37] 100% | residual activity [38] 100% | residual activity [39] 86% | residual activity [40] 90% | residual activity [41] 87% | residual activity [42] 100% | residual activity [43] 100% | residual activity [44] 94% | inhibition [45] 0.37%

Cc1nc(Cc2cccc(C(F)(F)F)c2)sc1-c1ccc(C(N)=O)nc1 [TP-024n]
inactive: residual activity [1] 82% | residual activity [2] 98% | residual activity [3] 98% | residual activity [4] 91% | residual activity [5] 86% | residual activity [6] 69% | residual activity [7] 100% | residual activity [8] 81% | residual activity [9] 76% | residual activity [10] 95% | residual activity [11] 100% | residual activity [12] 95% | residual activity [13] 75% | residual activity [14] 80% | residual activity [15] 100% | residual activity [16] 89% | residual activity [17] 90% | residual activity [18] 100% | residual activity [19] 100% | residual activity [20] 100% | residual activity [21] 100% | residual activity [22] 62% | residual activity [23] 98% | residual activity [24] 100% | residual activity [25] 89% | residual activity [26] 100% | residual activity [27] 81% | residual activity [28] 100% | residual activity [29] 100% | inhibition [30] 5.89% | residual activity [31] 94% | residual activity [32] 100% | residual activity [33] 87% | residual activity [34] 94% | residual activity [35] 100% | residual activity [36] 100% | residual activity [37] 99% | residual activity [38] 98% | residual activity [39] 83% | residual activity [40] 88% | residual activity [41] 88% | residual activity [42] 100% | residual activity [43] 90% | residual activity [44] 85% | inhibition [45] 5.75%
